In article PMC7169845, “Synthesis and Bioactivity of Phthalimide Analogs as Potential Drugs to Treat Schistosomiasis, a Neglected Disease of Poverty” (Pharmaceuticals, 2020):

SMILES | melting point
Cc1ccc2c(c1)C(=O)N(C(C)c1nc3ccccc3n1Cc1c[nH]nn1)C2=O (stereo not shown) [6k’, 2-(1-(1-((1H-1,2,3-Triazol-4-yl)methyl)-1H-benzo[d]imidazol-2-yl)ethyl)-5-methylisoindoline-1,3-dione] | 100 to 102 °C
CC(c1nc2ccccc2n1Cc1cn(-c2ccc(F)cc2F)nn1)N1C(=O)c2ccccc2C1=O (stereo not shown) [6d’, 2-(1-(1-((1-(2,4-Difluorophenyl)-1H-1,2,3-triazol-4-yl)methyl)-1H-benzo[d]imidazol-2-yl)ethyl)isoindoline-1,3-dione] | 195 to 197 °C
CC(C)C(c1nc2ccccc2n1Cc1cn(-c2c(F)cccc2F)nn1)N1C(=O)c2ccccc2C1=O (stereo not shown) [6u’, 2-(1-(1-((1-(2,6-Difluorophenyl)-1H-1,2,3-triazol-4-yl)methyl)-1H-benzo[d]imidazol-2-yl)-2-methylpropyl)isoindoline-1,3-dione] | 91 to 93 °C
CC(C)C(c1nc2ccccc2n1Cc1cn(-c2c(F)c(F)c(F)c(F)c2F)nn1)N1C(=O)c2ccccc2C1=O (stereo not shown) [6r’, 2-(2-Methyl-1-(1-((1-(perfluorophenyl)-1H-1,2,3-triazol-4-yl)methyl)-1H-benzo[d]imidazol-2-yl)propyl)isoindoline-1,3-dione] | 170 to 172 °C
CC(c1nc2ccccc2n1Cc1cn(-c2c(F)cccc2F)nn1)N1C(=O)c2ccccc2C1=O (stereo not shown) [6f’, 2-(1-(1-((1-(2,6-Difluorophenyl)-1H-1,2,3-triazol-4-yl)methyl)-1H-benzo[d]imidazol-2-yl)ethyl)isoindoline-1,3-dione] | 94 to 96 °C
Cc1ccc2c(c1)C(=O)N(C(C)c1nc3ccccc3n1Cc1cn(-c3ccccc3)nn1)C2=O (stereo not shown) [6l’, 5-Methyl-2-(1-(1-((1-phenyl-1H-1,2,3-triazol-4-yl)methyl)-1H-benzo[d]imidazol-2-yl)ethyl)isoindoline-1,3-dione] | 185 to 187 °C
Cc1ccc2c(c1)C(=O)N(C(C)c1nc3ccccc3n1Cc1cn(-c3ccncc3)nn1)C2=O (stereo not shown) [6n’, 5-Methyl-2-(1-(1-((1-(pyridin-4-yl)-1H-1,2,3-triazol-4-yl)methyl)-1H-benzo[d]imidazol-2-yl)ethyl)isoindoline-1,3-dione] | 236 to 238 °C
CC(c1nc2ccccc2n1Cc1cn(-c2c(F)c(F)c(F)c(F)c2F)nn1)N1C(=O)c2ccccc2C1=O (stereo not shown) [6b’, 2-(1-(1-((1-(Perfluorophenyl)-1H-1,2,3-triazol-4-yl)methyl)-1H-benzo[d]imidazol-2-yl)ethyl)isoindoline-1,3-dione] | 215 to 217 °C
Cc1ccc(-n2cc(Cn3c(C(C)N4C(=O)c5ccc(C)cc5C4=O)nc4ccccc43)nn2)cc1 (stereo not shown) [6i’, 5-Methyl-2-(1-(1-((1-(p-tolyl)-1H-1,2,3-triazol-4-yl)methyl)-1H-benzo[d]imidazol-2-yl)ethyl)isoindoline-1,3-dione] | 216 to 218 °C
CC(c1nc2ccccc2n1Cc1c[nH]nn1)N1C(=O)c2ccccc2C1=O (stereo not shown) [6g’, 2-(1-(1-((1H-1,2,3-Triazol-4-yl)methyl)-1H-benzo[d]imidazol-2-yl)ethyl)isoindoline-1,3-dione] | 97 to 99 °C
Cc1ccc2c(c1)C(=O)N(C(C)c1nc3ccccc3n1Cc1cn(Cc3ccccc3)nn1)C2=O (stereo not shown) [6m’, 2-(1-(1-((1-Benzyl-1H-1,2,3-triazol-4-yl)methyl)-1H-benzo[d]imidazol-2-yl)ethyl)-5-methylisoindoline-1,3-dione] | 142 to 144 °C
CC(C)C(c1nc2ccccc2n1Cc1cn(-c2ccc(F)cc2F)nn1)N1C(=O)c2ccccc2C1=O (stereo not shown) [6t’, 2-(1-(1-((1-(2,4-Difluorophenyl)-1H-1,2,3-triazol-4-yl)methyl)-1H-benzo[d]imidazol-2-yl)-2-methylpropyl)isoindoline-1,3-dione] | 100 to 102 °C
Cc1ccc2c(c1)C(=O)N(C(C)c1nc3ccccc3n1Cc1cn(-c3ccccc3F)nn1)C2=O (stereo not shown) [6o’, 2-(1-(1-((1-(2-Fluorophenyl)-1H-1,2,3-triazol-4-yl)methyl)-1H-benzo[d]imidazol-2-yl)ethyl)-5-methylisoindoline-1,3-dione] | 185 to 187 °C
CC(c1nc2ccccc2n1Cc1cn(Cc2ccccc2)nn1)N1C(=O)c2ccccc2C1=O (stereo not shown) [6e’, 2-(1-(1-((1-Benzyl-1H-1,2,3-triazol-4-yl)methyl)-1H-benzo[d]imidazol-2-yl)ethyl)isoindoline-1,3-dione] | 181 to 183 °C
CC(C)C(c1nc2ccccc2n1Cc1cn(-c2ccccc2F)nn1)N1C(=O)c2ccccc2C1=O (stereo not shown) [6s’, 2-(1-(1-((1-(2-Fluorophenyl)-1H-1,2,3-triazol-4-yl)methyl)-1H-benzo[d]imidazol-2-yl)-2-methylpropyl)isoindoline-1,3-dione] | 115 to 117 °C
Cc1ccc2c(c1)C(=O)N(C(C)c1nc3ccccc3n1Cc1cn(-c3ccc(F)cc3F)nn1)C2=O (stereo not shown) [6p’, 2-(1-(1-((1-(2,4-Difluorophenyl)-1H-1,2,3-triazol-4-yl)methyl)-1H-benzo[d]imidazol-2-yl)ethyl)-5-methylisoindoline-1,3-dione] | 206 to 208 °C

More lines, now with the values ahead:

melting point | SMILES
72 to 74 °C | Cc1ccc2c(c1)C(=O)N(C(CC(C)C)c1nc3ccccc3n1Cc1cn(-c3ccc(F)cc3F)nn1)C2=O (stereo not shown) [6j, 2-(1-(1-((1-(2,4-Difluorophenyl)-1H-1,2,3-triazol-4-yl)methyl)-1H-benzo[d]imidazol-2-yl)-3-methylbutyl)-5-methylisoindoline-1,3-dione]
86 to 88 °C | CCC(C)C(c1nc2ccccc2n1Cc1cn(-c2c(F)c(F)c(F)c(F)c2F)nn1)N1C(=O)c2ccccc2C1=O (stereo not shown) [6t, 2-(2-Methyl-1-(1-((1-(perfluorophenyl)-1H-1,2,3-triazol-4-yl)methyl)-1H-benzo[d]imidazol-2-yl)butyl)isoindoline-1,3-dione]
126 to 128 °C | CC(C)CC(c1nc2ccccc2n1Cc1cn(-c2ccc(F)cc2F)nn1)N1C(=O)c2ccccc2C1=O (stereo not shown) [6o, 2-(1-(1-((1-(2,4-Difluorophenyl)-1H-1,2,3-triazol-4-yl)methyl)-1H-benzo[d]imidazol-2-yl)-3-methylbutyl)isoindoline-1,3-dione]
101 to 103 °C | COc1ccc(-n2cc(Cn3c(C(CC(C)C)N4C(=O)c5ccc(C)cc5C4=O)nc4ccccc43)nn2)cc1 (stereo not shown) [6h, 2-(1-(1-((1-(4-Methoxyphenyl)-1H-1,2,3-triazol-4-yl)methyl)-1H-benzo[d]imidazol-2-yl)-3-methylbutyl)-5-methylisoindoline-1,3-dione]
150 to 152 °C | Cc1ccc2c(c1)C(=O)N(C(CC(C)C)c1nc3ccccc3n1Cc1c[nH]nn1)C2=O (stereo not shown) [6c, 2-(1-(1-((1H-1,2,3-Triazol-4-yl)methyl)-1H-benzo[d]imidazol-2-yl)-3-methylbutyl)-5-methylisoindoline-1,3-dione]
67 to 69 °C | Cc1ccc2c(c1)C(=O)N(C(CC(C)C)c1nc3ccccc3n1Cc1cn(-c3ccccc3)nn1)C2=O (stereo not shown) [6g, 5-Methyl-2-(3-methyl-1-(1-((1-phenyl-1H-1,2,3-triazol-4-yl)methyl)-1H-benzo[d]imidazol-2-yl)butyl)isoindoline-1,3-dione]
71 to 73 °C | Cc1ccc2c(c1)C(=O)N(C(CC(C)C)c1nc3ccccc3n1Cc1cn(-c3c(F)cccc3F)nn1)C2=O (stereo not shown) [6k, 2-(1-(1-((1-(2,6-Difluorophenyl)-1H-1,2,3-triazol-4-yl)methyl)-1H-benzo[d]imidazol-2-yl)-3-methylbutyl)-5-methylisoindoline-1,3-dione]
114 to 116 °C | CCC(C)C(c1nc2ccccc2n1Cc1cn(-c2ccccc2F)nn1)N1C(=O)c2ccc(C)cc2C1=O (stereo not shown) [6q, 2-(1-(1-((1-(2-Fluorophenyl)-1H-1,2,3-triazol-4-yl)methyl)-1H-benzo[d]imidazol-2-yl)-2-methylbutyl)-5-methylisoindoline-1,3-dione]
100 to 102 °C | CC(C)CC(c1nc2ccccc2n1Cc1cn(-c2c(F)c(F)c(F)c(F)c2F)nn1)N1C(=O)c2ccccc2C1=O (stereo not shown) [6l, 2-(3-Methyl-1-(1-((1-(perfluorophenyl)-1H-1,2,3-triazol-4-yl)methyl)-1H-benzo[d]imidazol-2-yl)butyl)isoindoline-1,3-dione]
216 to 218 °C | CC(C)CC(c1nc2ccccc2n1Cc1cn(-c2ccc(C(F)(F)F)cc2)nn1)N1C(=O)c2ccccc2C1=O (stereo not shown) [6m, 2-(3-Methyl-1-(1-((1-(4-(trifluoromethyl)phenyl)-1H-1,2,3-triazol-4-yl)methyl)-1H-benzo[d]imidazol-2-yl)butyl)isoindoline-1,3-dione]
198 to 200 °C | CC(C)CC(c1nc2ccccc2n1Cc1cn(-c2c(F)cccc2F)nn1)N1C(=O)c2ccccc2C1=O (stereo not shown) [6p, 2-(1-(1-((1-(2,6-Difluorophenyl)-1H-1,2,3-triazol-4-yl)methyl)-1H-benzo[d]imidazol-2-yl)-3-methylbutyl)isoindoline-1,3-dione]
142 to 144 °C | Cc1ccc2c(c1)C(=O)N(C(CC(C)C)c1nc3ccccc3n1Cc1cn(Cc3ccccc3)nn1)C2=O (stereo not shown) [6f, 2-(1-(1-((1-Benzyl-1H-1,2,3-triazol-4-yl)methyl)-1H-benzo[d]imidazol-2-yl)-3-methylbutyl)-5-methylisoindoline-1,3-dione]
128 to 130 °C | Cc1ccc2c(c1)C(=O)N(C(CC(C)C)c1nc3ccccc3n1Cc1cn(-c3c(F)c(F)c(F)c(F)c3F)nn1)C2=O (stereo not shown) [6d, 5-Methyl-2-(3-methyl-1-(1-((1-(perfluorophenyl)-1H-1,2,3-triazol-4-yl)methyl)-1H-benzo[d]imidazol-2-yl)butyl)isoindoline-1,3-dione]
218 to 220 °C | Cc1ccc2c(c1)C(=O)N(C(CC(C)C)c1nc3ccccc3n1Cc1cn(-c3ccc(C(F)(F)F)cc3)nn1)C2=O (stereo not shown) [6e, 5-Methyl-2-(3-methyl-1-(1-((1-(4-(trifluoromethyl)phenyl)-1H-1,2,3-triazol-4-yl)methyl)-1H-benzo[d]imidazol-2-yl)butyl)isoindoline-1,3-dione]
107 to 109 °C | CC(C)CC(c1nc2ccccc2n1Cc1cn(-c2ccccc2F)nn1)N1C(=O)c2ccccc2C1=O (stereo not shown) [6n, 2-(1-(1-((1-(2-Fluorophenyl)-1H-1,2,3-triazol-4-yl)methyl)-1H-benzo[d]imidazol-2-yl)-3-methylbutyl)isoindoline-1,3-dione]
